“And” between values parts separate entries of the source, which are not always exact repeats. Equal values may be shown once.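 Following 48 hours of exposure in 96-well plates, responses at five concentrations were used to interpolate endpoints linearly. The concentration for 50% growth inhibition is given as GI50. Definition used: TGI = concentration required for complete inhibition of growth.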
These compounds were tested on OVCAR-8 ovarian (assay: DTP human tumour cell line panel, 48 h).
`CCN1CCN(c2cc(C)c3cc(NC(=O)c4ccc(OC)c(OC)c4)ccc3n2)CC1` was tested, and the GI50 was 50.7 µM and the TGI was > 100 µM. `CC(C)(C)c1cc(C(P(=O)(O)O)P(=O)(O)O)cc(C(C)(C)C)c1O` was tested, and the TGI was > 100 µM. With `COC(=O)c1c2c(c(C)[n+]([O-])c1C)C(=O)C=C(NCc1ccc(F)cc1)C2=O` the GI50 was 0.37 µM and the TGI was 1.93 µM. Work on `CC(C)C1=Cc2ccc3c(c2C(=O)C1=O)CCCC3(C)C` yielded a TGI of 10 µM. For `CSc1nc(SC)c2c(C#N)[nH]nc2n1`, the TGI was > 100 µM. For `CCCC(=O)Nc1cn(COC)c(C(=O)N2C[C@@H]3C[C@]34C2=CC(=O)c2[nH]cc(C)c24)n1`, the TGI was 12.8 µM and 14 µM. For `CC(=O)Nc1ccc(-c2csc(Nc3cccc(-c4csc(C)n4)c3)n2)cc1`, the GI50 was 2.44 µM and the TGI was 20.8 µM. Work on `CNCCOC(=O)/C=C1\CC[C@H]2[C@@H]([C@@H](O)C(=O)[C@@H]3[C@]2(C)CC[C@H](O)[C@]3(C)C(=O)OC)[C@H]1C` yielded a GI50 of 0.329 µM and a TGI of 1.11 µM.

What follows are compounds tested on UACC-257 melanoma (assay: DTP human tumour cell line panel, 48 h).
Work on `CN1CCN(c2ccc(Nc3cc(-c4cccc(-n5ccc6cc(C7CC7)cc(F)c6c5=O)c4CO)cn(C)c3=O)nc2)CC1` yielded a GI50 of 2.28 µM and a TGI of 5.03 µM. `COc1ccc2nc3ccccc3c(NCc3ccc(F)cc3)c2c1` gave a GI50 of 1.8 µM and a TGI of 6.68 µM. For `CN(C)C1CCN(C(=O)c2ccc(NC(=O)Nc3ccc(-c4nc(N5CCOCC5)c5cccn5n4)cc3)cc2)CC1`, the GI50 was 0.204 µM and the TGI was 0.729 µM. With `COc1ccc(OCC(=O)O)c2c1CCCC2=O` the TGI was > 100 µM. In the case of `COc1cc(N=Nc2ccc(O)c3ncccc23)c2ncccc2c1`, the GI50 is reported as 10.9 µM and the TGI is reported as > 100 µM. Work on `Cc1nc(Nc2ccc(Cl)cc2)sc1C(=O)NNC(=S)NN` yielded a TGI of 27.3 µM. For `CCn1c(O)c(/C=N/NC(=O)C(C)c2ccc(CC(C)C)cc2)sc1=S` (stereo not drawn), the GI50 was 3.16 µM and the TGI was > 74.9 µM. In the case of `C[C@@H]1C[C@@H]([C@@H](CC2CC(=O)NC(=O)C2)OC(=O)CC(=O)c2ccccc2)C(=O)[C@@H](C)C1`, the GI50 is reported as 0.358 µM and the TGI is reported as 13 µM. Work on `N=c1c2c(-c3ccccc3)c(-c3ccccc3)n(Cc3ccccc3)c2ncn1C1CCC(O)CC1` (stereo not drawn) yielded a GI50 of 0.469 µM and a TGI of 1.91 µM. Work on `O=c1c(F)cn(Cc2ccc(C34CC5CC(CC(C5)C3)C4)c(O)c2)c(=O)n1Cc1ccc(C23CC4CC(CC(C4)C2)C3)c(O)c1` yielded a GI50 of 20.7 µM and a TGI of 50.7 µM. Compound `CCOC(=O)Nc1cc2c(c(N)n1)N=C(c1ccccc1)CO2` has a GI50 of 17.5 µM and a TGI of 99.6 µM. For `CC1CC2CCCC(O)=C2C(=O)O1` (stereo not drawn), the TGI was > 100 µM. With `CC(C)(/C=C(\C#N)C(=O)N1CCC[C@@H](n2nc(-c3ccc(Oc4ccccc4)cc3F)c3c(N)ncnc32)C1)N1CCN(C2COC2)CC1` the GI50 was 5.58 µM and the TGI was 20.4 µM. In the case of `Cc1ccc(C)c(NC(=O)c2cccc([N+](=O)[O-])c2O)c1`, the TGI is reported as 63 µM. In the case of `O=c1oc2ccc(-c3ccc(F)cc3F)cc2c(=O)n1-c1cccc(C(F)(F)F)c1`, the GI50 is reported as 0.274 µM and the TGI is reported as 3.31 µM. For `COC(=O)c1ccc2c(c1)C(=O)c1c-2n(CCCN=[N+]=[N-])c(=O)c2cc(OC)c(OC)cc12`, the GI50 was > 100 µM and the TGI was > 100 µM. In the case of `O=C(Cc1ccc(F)c(Cl)c1)Nc1cc(C2(C(F)(F)F)CC2)nn1CC1CCCCC1`, the GI50 is reported as 3.38 µM and the TGI is reported as 11.2 µM. `N#Cc1nn(-c2cc(=O)[nH]c3ccc(Cl)cc23)c(N)c1C#N` was tested, and the GI50 was > 100 µM and the TGI was > 100 µM. In the case of `On1c(-c2ccccc2)c(-c2ccccc2N2CCCC2)c2ccccc21`, the TGI is reported as > 100 µM. In the case of `CCN1CCN(c2cc(C)c3cc(NC(=O)c4ccc(OC)c(OC)c4)ccc3n2)CC1`, the GI50 is reported as > 40.4 µM and the TGI is reported as > 58.9 µM. In the case of `CC(C)(C)c1cc(C(P(=O)(O)O)P(=O)(O)O)cc(C(C)(C)C)c1O`, the TGI is reported as > 100 µM. For `COC(=O)c1c2c(c(C)[n+]([O-])c1C)C(=O)C=C(NCc1ccc(F)cc1)C2=O`, the GI50 was 0.258 µM and the TGI was 0.822 µM. `CC(C)C1=Cc2ccc3c(c2C(=O)C1=O)CCCC3(C)C` was tested, and the TGI was 8.64 µM. In the case of `CSc1nc(SC)c2c(C#N)[nH]nc2n1`, the TGI is reported as > 100 µM. `CCCC(=O)Nc1cn(COC)c(C(=O)N2C[C@@H]3C[C@]34C2=CC(=O)c2[nH]cc(C)c24)n1` was tested, and the GI50 was 13.3 µM and the TGI was 23.5 µM and 27.7 µM. In the case of `CC(=O)Nc1ccc(-c2csc(Nc3cccc(-c4csc(C)n4)c3)n2)cc1`, the GI50 is reported as 4.63 µM and the TGI is reported as 21.5 µM. `CNCCOC(=O)/C=C1\CC[C@H]2[C@@H]([C@@H](O)C(=O)[C@@H]3[C@]2(C)CC[C@H](O)[C@]3(C)C(=O)OC)[C@H]1C` gave a GI50 of 0.479 µM and a TGI of 1.73 µM.
